In ChEMBL document CHEMBL3045738, “Control of Greenhouse Whitefly (Trialeurodes vaporariorum) Using Visually Attractive Targets Impregnated with Pyriproxyfen” (J Pestic Sci, 2005):
Activity calls are given as the source filed them. The rule behind the calls is not given here.

Experiments:
[1] = system: Trialeurodes vaporariorum; experiment: Insecticidal activity against Trialeurodes vaporariorum in ten-leaf stage of bean plant after 10 to 35 days; assay type: functional, organism-based
[2] = system: Trialeurodes vaporariorum; experiment: Insecticidal activity against Trialeurodes vaporariorum in bean plant leaf up to 50 days by glasshouse method; assay type: functional, organism-based

## CC(COc1ccc(Oc2ccccc2)cc1)Oc1ccccn1 (racemic)
[1]
  Activity: Active
[2]
  Activity: Active
